# US20090032411A1, “METHOD AND SYSTEM FOR DETECTING PHARMACOLOGICALLY ACTIVE SUBSTANCES BY MEASURING MEMBRANE CURRENTS WITH EXTRACELLULAR SENSORS” (Max-Planck-Gesellschaft zur Foerderung Der Wissenschaften …, priority 2006, published 2009)
# Entries after “also recorded” stand apart in the source; their conditions may differ.
# Legend:
# Type in all cases: cell-based
# [1] = target: T1, voltage-gated potassium channel Kv1.3 (Homo sapiens, UniProt P22001); assay: FET recording of the extracellular (junction) voltage signal of HEK293 cells doubly transfected with 5-HT3A and Kv1.3, blocker of Kv1.3
# T1 construct: expressed in transfected cells; host or cells: HEK293
# T1 sequence (P22001 whole entry): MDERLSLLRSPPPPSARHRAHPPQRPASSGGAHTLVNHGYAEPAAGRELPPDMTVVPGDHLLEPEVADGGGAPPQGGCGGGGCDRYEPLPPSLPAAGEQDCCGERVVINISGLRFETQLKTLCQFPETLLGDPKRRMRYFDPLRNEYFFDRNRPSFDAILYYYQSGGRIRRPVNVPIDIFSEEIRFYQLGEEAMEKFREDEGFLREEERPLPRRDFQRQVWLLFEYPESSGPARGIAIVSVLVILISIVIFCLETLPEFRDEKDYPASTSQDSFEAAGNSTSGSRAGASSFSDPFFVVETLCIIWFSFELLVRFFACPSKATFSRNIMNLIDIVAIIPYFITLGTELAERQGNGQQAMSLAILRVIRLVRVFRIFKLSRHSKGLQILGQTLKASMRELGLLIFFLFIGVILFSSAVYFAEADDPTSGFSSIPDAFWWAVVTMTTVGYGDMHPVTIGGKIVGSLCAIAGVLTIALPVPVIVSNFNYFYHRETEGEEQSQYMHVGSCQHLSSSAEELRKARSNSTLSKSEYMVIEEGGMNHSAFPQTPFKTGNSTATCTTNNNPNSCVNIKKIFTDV
# Protocol: (§1) HEK293 cells were cultured in plastic dishes (Becton Dickinson, No. 353001), in Dulbecco's modified Eagle's medium (GIBCO, No. 21885-025), supplemented with 10% heat-inactivated fetal bovine serum. The cDNA of the human ligand-gated ion channel 5-HT3A was purchased from Invitrogen (Ultimate ORF clone collection, HORF01), and subcloned into the expression plasmid pcDNA3 (Invitrogen, No. V790-20), applying standard molecular biology methods. The construction of an expression plasmid for the voltage-gated potassium channel Kv1.3 was as described in J. Kupper: Functional expression of GFP-tagged Kv1.3 and Kv1.4 channels in HEK 293 cells. Eur. J. Neurosci. 10, 3908-12 (1998). The cells were stably transfected with one of the two expression plasmids using Geneticin (GIBCO, No. 11811-064), as the selection antibiotic (500 μg/ml). After generation of stable cell lines, the cells were transiently transfected with the other of the two expression plasmids together with the EGFP-C1 plasmid (BD Biosciences Clontech, No. 632317), which served as control for successful transfection. […]
# (§2) Silicon chips as described in M. Voelker, P. Fromherz: Signal transmission from individual mammalian nerve cell to field-effect transistor. […] Cells on transistor gates with the transiently expressed channels were identified by the green EGFP fluorescence. […]
# [2] = target: T2, voltage-gated channel Kv1.3 (Homo sapiens, UniProt P22001); assay: FET recording of junction voltage of HEK293 cells expressing only Kv1.3
# T2 construct: expressed in transfected cells; host or cells: HEK293
# T2 sequence (P22001 whole entry): as above
# Protocol: as §1, §2
# [3] = target: T3, ligand-gated ion channel 5-HT3A (Homo sapiens, UniProt P46098); assay: FET recording of the extracellular (junction) voltage signal of HEK293 cells doubly transfected with 5-HT3A and Kv1.3, ligands of 5-HT3A; settings: for extracellular voltage signal in the cell-chip junction on application of agonist: agonist 100 μM, cells expressing both 5-HT3A and Kv1.3, FET recording; for effect on the serotonin-induced extracellular voltage signal: tropisetron 1 μM present before and during stimulation with 100 μM serotonin, doubly transfected cell
# T3 construct: host or cells: HEK293
# T3 sequence (P46098 24-478): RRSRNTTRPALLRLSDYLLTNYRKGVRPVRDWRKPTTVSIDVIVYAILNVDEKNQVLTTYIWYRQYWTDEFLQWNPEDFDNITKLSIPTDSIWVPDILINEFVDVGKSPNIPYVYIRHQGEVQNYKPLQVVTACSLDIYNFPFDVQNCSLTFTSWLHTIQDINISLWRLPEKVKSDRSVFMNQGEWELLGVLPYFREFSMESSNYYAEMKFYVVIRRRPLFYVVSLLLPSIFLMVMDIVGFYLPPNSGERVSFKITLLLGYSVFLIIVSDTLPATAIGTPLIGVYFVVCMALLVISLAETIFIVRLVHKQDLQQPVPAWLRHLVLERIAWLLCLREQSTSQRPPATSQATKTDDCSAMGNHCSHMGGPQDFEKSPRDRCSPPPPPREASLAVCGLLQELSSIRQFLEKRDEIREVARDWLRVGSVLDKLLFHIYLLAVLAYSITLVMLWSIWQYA
# Protocol: HEK293 cells were cultured in plastic dishes (Becton Dickinson, No. 353001), in Dulbecco's modified Eagle's medium (GIBCO, No. 21885-025), supplemented with 10% heat-inactivated fetal bovine serum. The cDNA of the human ligand-gated ion channel 5-HT3A was purchased from Invitrogen (Ultimate ORF clone collection, HORF01), and subcloned into the expression plasmid pcDNA3 (Invitrogen, No. V790-20), applying standard molecular biology methods. The construction of an expression plasmid for the voltage-gated potassium channel Kv1.3 was as described in J. Kupper: Functional expression of GFP-tagged Kv1.3 and Kv1.4 channels in HEK 293 cells. Eur. J. Neurosci. 10, 3908-12 (1998). The cells were stably transfected with one of the two expression plasmids using Geneticin (GIBCO, No. 11811-064), as the selection antibiotic (500 μg/ml). After generation of stable cell lines, the cells were transiently transfected with the other of the two expression plasmids together with the EGFP-C1 plasmid (BD Biosciences Clontech, No. 632317), which served as control for successful transfection. Transfections were done using the Effectene method (Qiagen, No. 301425), at 60-80% confluency.
# Silicon chips as described in M. Voelker, P. Fromherz: Signal transmission from individual mammalian nerve cell to field-effect transistor. Small 1, 206-210 (2005) with 128 Field Effect Transistors (FET) in two linear arrays and a culture chamber on top were cleaned, sterilized under UV-light and coated with 10 μg/ml fibronectin (Sigma, No. F2006). Cells were plated on these chips under normal culture conditions one day after transient transfection, and measurements were done one day after plating. Cells on transistor gates with the transiently expressed channels were identified by the green EGFP fluorescence.
# During experiments the cells were flushed permanently with standard extracellular solution, consisting of (in mM): KCl 5.4, NaCl 135, CaCl2 1.8, MgCl2 1 Glucose 10, Hepes 5 (pH adjusted to 7.4 with NaOH). The ligands serotonin, CPBG (agonists of 5-HT3A) tropisetron and margatoxin (antagonists of 5-HT3A and Kv1.3, respectively), were obtained from Sigma (No. H9523, C144, T104, M8278), and dissolved in extracellular solution.
# Ligand solutions were applied rapidly (ms range), with a double barrelled glass pipette (Theta-Tube), connected to a piezoelectric actuator (Burleigh, LSS-3100). Different ligand solutions were directed to the glass pipette by an eight-channel valve control system (ALA, BPS-8).
# During application of ligands, the voltage in the cleft between transfected cells and the chip surface was probed with the gates of Field Effect Transistors under the cells.
# [4] = target: T3, ligand-gated ion channel 5-HT3A; assay: FET recording of junction voltage of HEK293 cells expressing only 5-HT3A
# Protocol: as §1, §2
compound,measurement,setting,value
"margatoxin (TIINVKCTSPKQCLPPCKAQFGQSAGAKCMNGKCKCYPH; UniProt P40755 1-39, looked up)",effect on the serotonin-induced extracellular voltage signal,"[1]; 5 nM margatoxin present during 100 μM serotonin stimulation, doubly transfected cell",The signal was reduced; also recorded: blocked the signal
same,serotonin-triggered signal after removal of margatoxin (reversibility),"[1]; same cell, after removal of 5 nM margatoxin",A biphasic voltage signal was recovered
NCCc1c[nH]c2ccc(O)cc12 [serotonin],voltage signal in the cell-chip junction upon stimulation with serotonin,[2],failed to produce a signal
same,extracellular voltage signal in the cell-chip junction on application of agonist,[3],triggered a biphasic voltage signal; also recorded: Biphasic extracellular voltage signal; also recorded: caused a biphasic voltage signal
same,voltage signal in the cell-chip junction upon stimulation with serotonin,[4],failed to cause a voltage signal
NC(N)=NC(N)=Nc1cccc(Cl)c1 [CPBG],extracellular voltage signal in the cell-chip junction on application of agonist,[3],triggered a biphasic voltage signal; also recorded: caused a biphasic voltage signal
CN1[C@@H]2CC[C@H]1C[C@@H](OC(=O)c1c[nH]c3ccccc13)C2 [tropisetron],effect on the serotonin-induced extracellular voltage signal,[3],blocked the signal
same,effect on the serotonin-induced extracellular voltage signal,[3]; listed as Tropisetron,The signal was lost
